Patent US20210032291A1, “Compstatin Analogs With Improved Pharmacokinetic Properties” (The Trustees of the University of Pennsylvania, priority 2011, published 2021)
Values after ≈ are worked out from the molar mass of the structure shown.

What was measured:
[1] = system: classical pathway of complement; experiment: ELISA inhibition of classical pathway complement activation; assay type: biochemical; conditions: read-out: IC50, peptide concentration to reach 50% inhibition of classical pathway complement activation; Table 1
Description: Inhibition of complement activation. The ability of the compstatin analogs to inhibit the activation of the classical pathway of complement was assessed by ELISA as described elsewhere (Katragadda et al., 2006, supra; Mallik et al., 2005, supra). The percent inhibition was plotted against the peptide concentration, and the resulting data set was fitted to the logistic dose-response function using Origin 8.0 software. IC50 values were obtained from the fitted parameters that produced the lowest χ2 value. Each analog was assayed at least three times.

[2] = Plasma levels and half-life after i.v. injection in cynomolgus monkeys; conditions: 2 mg/kg i.v., terminal log-linear portion (1-24 h)
Description: (§4) Primate studies and sample collection. Evaluation of plasma half-life and generation of major metabolites was performed at the Simian Conservation Breeding and Research Center (SICONBREC, Makati City, Philippines) in cynomolgus monkeys (Macaca fascicularis). […] Blood samples (1-2 mL) were collected immediately before and at various time points after compound injection (2, 5 and 30 min; 1, 2, 4, 6, and 24 hours) in EDTA-coated Vacutainer tubes to prevent coagulation and complement activation, and centrifuged at ˜800×g for 10 min to obtain plasma. Plasma samples were immediately frozen and stored for further analysis. All NHP studies were performed in accordance with animal welfare laws and regulations.
(§5) Analysis of plasma samples. Prior to analysis by UPLC-MS, compstatin analogs in the plasma samples were extracted by solid phase extraction (SPE) in a 96-well plate format (HLB Oasis 30 μm, 10 mg; Waters, Milford, Mass.). […] Eluted peptides were directly analyzed by HDMS; the ESI source capillary voltage was set to 3.2 kV, the cone voltage to 30 V and the source temperature to 120° C. […]
(§6) Determination of plasma half-life. […] All calibration samples were subjected to SPE and measured using UPLC-HDMS as described above. […] For the pharmacokinetic analysis, the plasma concentration (Cp) at each time point was calculated from the extracted peak area of each peptide using the corresponding standard curve.

[3] = in vivo; design: species or system baboons (P. Anubis); conditions: baboon (P. Anubis), iv, 10 mg
Description: Juvenile baboons (P. Anubis, Baboon Research Resources, University of Oklahoma) weighing 5-8 kg were used. Two baboons were used for the study, one for each compound. Each animal received a bolus dose of peptide (10 mg) by injection through the peripheral vein. Blood samples for the LC-MS/MS assay were collected in 1-ml plastic tubes containing […] lepirudin, and centrifuged at 2000 g for 20 min at 4° C. for plasma separation. Plasma samples were stored at −70° C. Blood samples were collected at pre-determined time intervals after injection of Cp30 (SEQ ID NO:7) or the Cp30 (SEQ ID NO:7)-ABM2 conjugate. Samples were treated with SPE and analyzed using LC-MS/MS. Calibration curves were created using standard peptides at various concentrations in plasma to determine peptide concentration in each sample.
Extraction of compstatin analogs from plasma samples by SPE. […] Samples were diluted with 4% H3PO4. After loading a sample, washing was carried out with 500 μL of water and 10% ACN with 0.1% formic acid. […] Samples for LC-MS were diluted 1:2 to 1:11 in milli-Q water with 10% ACN with 0.1% formic acid.
LC-MS/MS analysis. […] Each sample was injected in triplicate. […] The analytical column temperature was held at 40° C. Peptides were separated at flow rate 0.15 mL/min. The gradient was linear 15-55% B (0.1% formic acid in acetonitrile) over 7 min.

[4] = Solubility in WFI and DPBS; UPLC C18 retention time as hydrophobicity; conditions: for Hydrophobicity Retention Time: UPLC analysis on a C18 column
Description: (§7) Approximately 5 mg of each peptide (acetate form) was weighed out into separate LoBind Eppendorf tubes and 50 μL water for injection (WFI) was added to each tube. Each sample was centrifuged at 13000 rpm for 2 min and diluted for measuring the optical density (OD) at 280 nm using a NanoDrop 2000 spectrophotometer (ThermoScientific, Wilmington, Del.). Each concentrated sample was diluted 1:20 into Dulbecco's phosphate buffered saline (DPBS, without potassium and calcium; Invitrogen, Carlsbad, Calif.). The samples were monitored for precipitation, and each sample was vortexed for 5 min and centrifuged at 13000 rpm for 2 min. The OD of each DPBS supernatant was measured to determine peptide concentration at saturation.
(§8) In addition, the ultra performance liquid chromatography (UPLC) retention time of these peptides on a C18 column was measured to reflect their apparent relative hydrophobicity (Table 3).

[5] = Stability in human plasma at 37° C. (SPE, UPLC-MS); conditions: fresh human plasma
Description: (§9) Plasma stability. Fresh human plasma containing lepirudin (3.75 units/ml) was incubated at 37° C. with Cp30 (SEQ ID NO:7), Cp40 (SEQ ID NO:18) or control peptide 2B at a final concentration of 20 μM each. Samples of 100 μL were taken for solid phase extraction. A 96-well plate HLB Oasis 30 μm 10 mg (Waters, Milford, Mass.) was employed for extraction. The SPE material was conditioned by addition of 500 μL each of methanol and ACN followed by addition of 500 μL of milli-Q water. Sample was diluted 1:1 with 4% H3PO4. After loading the sample, washing was carried out twice with 500 μL of 10% ACN in 0.1% formic acid. Sample was eluted with 200 μL of 65% ACN in 0.1% formic acid and collected in the Eppendorf LoBind collection plate. Sample for UPLC-MS was diluted 1:10 in milli-Q water with 0.1% formic acid. Cp20 (SEQ ID NO:3) was spiked in each sample before SPE as an internal standard.
(§10) UPLC-MS analysis. UPLC-MS analysis was performed on a SYNAPT HDMS (Waters, Milford, Mass.) equipped with an ESI source controlled by MassLynx 4.1 software (Waters). Each sample was injected in quadruplicates. An online ACQUITY UPLC (Waters) system was used for peptide separation by reversed-phase liquid chromatography. The capillary voltage was 3.2 kV, the cone voltage was 30 V and the source temperature was 120° C. [Glu1]-fibrinogen peptide was used for lock-mass correction with a sampling rate of 30 s. […]

[6] = target: T1, C3b (Homo sapiens, UniProt P01024); experiment: SPR kinetic analysis of binding to immobilized C3b (Biacore, single cycle kinetics)
T1 construct: Biotinylated C3b was captured site-specifically on a streptavidin chip
T1 sequence (P01024 23-667 limits assumed): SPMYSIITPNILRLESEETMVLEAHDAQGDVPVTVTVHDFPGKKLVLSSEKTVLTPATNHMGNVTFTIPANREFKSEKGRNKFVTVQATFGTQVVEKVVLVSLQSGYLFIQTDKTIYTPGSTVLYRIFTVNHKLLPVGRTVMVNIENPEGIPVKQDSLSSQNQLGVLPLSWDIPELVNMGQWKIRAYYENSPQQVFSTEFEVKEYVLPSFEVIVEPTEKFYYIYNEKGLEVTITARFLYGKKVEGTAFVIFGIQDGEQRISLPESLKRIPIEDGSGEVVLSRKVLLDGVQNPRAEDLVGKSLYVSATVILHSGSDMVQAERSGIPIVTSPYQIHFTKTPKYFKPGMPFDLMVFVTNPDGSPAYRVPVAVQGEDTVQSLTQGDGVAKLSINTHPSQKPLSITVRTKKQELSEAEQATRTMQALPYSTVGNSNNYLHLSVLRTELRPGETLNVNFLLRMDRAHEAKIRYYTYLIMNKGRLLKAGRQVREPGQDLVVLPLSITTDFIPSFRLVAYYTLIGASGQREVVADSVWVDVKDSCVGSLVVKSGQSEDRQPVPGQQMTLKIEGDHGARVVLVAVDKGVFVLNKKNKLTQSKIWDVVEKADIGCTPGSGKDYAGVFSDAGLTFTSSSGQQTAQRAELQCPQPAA
T1 sequence (P01024 749-1663 partner limits assumed): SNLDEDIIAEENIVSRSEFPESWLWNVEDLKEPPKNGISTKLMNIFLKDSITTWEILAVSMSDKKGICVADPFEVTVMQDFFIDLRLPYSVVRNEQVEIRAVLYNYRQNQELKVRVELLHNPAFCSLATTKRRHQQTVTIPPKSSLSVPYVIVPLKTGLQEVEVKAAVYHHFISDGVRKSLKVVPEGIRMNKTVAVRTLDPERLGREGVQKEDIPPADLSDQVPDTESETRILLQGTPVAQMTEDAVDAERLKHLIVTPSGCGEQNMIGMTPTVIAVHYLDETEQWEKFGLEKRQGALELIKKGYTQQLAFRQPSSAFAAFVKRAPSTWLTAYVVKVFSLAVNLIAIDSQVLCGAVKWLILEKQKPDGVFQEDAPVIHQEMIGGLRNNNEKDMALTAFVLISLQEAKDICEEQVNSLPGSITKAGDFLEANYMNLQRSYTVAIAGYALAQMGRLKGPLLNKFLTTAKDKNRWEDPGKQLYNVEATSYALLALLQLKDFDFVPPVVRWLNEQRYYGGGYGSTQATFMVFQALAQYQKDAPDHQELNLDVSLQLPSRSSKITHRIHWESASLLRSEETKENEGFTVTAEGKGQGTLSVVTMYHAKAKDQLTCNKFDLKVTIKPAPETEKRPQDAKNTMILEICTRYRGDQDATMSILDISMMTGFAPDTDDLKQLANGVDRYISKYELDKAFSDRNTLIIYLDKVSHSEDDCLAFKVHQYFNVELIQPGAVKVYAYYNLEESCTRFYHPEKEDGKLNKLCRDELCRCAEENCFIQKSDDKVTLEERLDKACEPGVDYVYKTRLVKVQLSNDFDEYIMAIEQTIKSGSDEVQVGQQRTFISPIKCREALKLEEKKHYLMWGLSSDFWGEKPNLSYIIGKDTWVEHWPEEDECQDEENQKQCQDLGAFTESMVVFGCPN
Description: SPR analysis. The interaction of the compstatin analogs with C3b was characterized using a Biacore 3000 instrument (GE Healthcare, Corp., Piscataway, N.J.). The running buffer was PBS, pH 7.4 (10 mM sodium phosphate, 150 mM NaCl) with 0.005% Tween-20. Biotinylated C3b was captured site-specifically on a streptavidin chip at about 3000 and 5000 RU density; two untreated flow cells were used as reference surface. For kinetic analysis, sets of five increasing concentrations of a particular compound were injected over the chip surface one after the other in a single cycle. […] Processed biosensor data were globally fitted to a 1:1 Langmuir binding model (kindly provided by GE Helthcare), and the equilibrium dissociation constant (KD) was calculated from the equation KD=kd/ka. Each assay was performed at least twice.

[7] = target: T2, C3 (Homo sapiens, UniProt P01024); experiment: Plasma protein binding in human plasma (PEG precipitation, Mono Q FPLC, UPLC-MS); assay type: in vitro ADME; conditions: 20 μM peptide, Mono Q fractions
T2 construct: from tissue; host or cells: fresh human plasma (lepirudin-anticoagulated)
T2 sequence (P01024 23-1663): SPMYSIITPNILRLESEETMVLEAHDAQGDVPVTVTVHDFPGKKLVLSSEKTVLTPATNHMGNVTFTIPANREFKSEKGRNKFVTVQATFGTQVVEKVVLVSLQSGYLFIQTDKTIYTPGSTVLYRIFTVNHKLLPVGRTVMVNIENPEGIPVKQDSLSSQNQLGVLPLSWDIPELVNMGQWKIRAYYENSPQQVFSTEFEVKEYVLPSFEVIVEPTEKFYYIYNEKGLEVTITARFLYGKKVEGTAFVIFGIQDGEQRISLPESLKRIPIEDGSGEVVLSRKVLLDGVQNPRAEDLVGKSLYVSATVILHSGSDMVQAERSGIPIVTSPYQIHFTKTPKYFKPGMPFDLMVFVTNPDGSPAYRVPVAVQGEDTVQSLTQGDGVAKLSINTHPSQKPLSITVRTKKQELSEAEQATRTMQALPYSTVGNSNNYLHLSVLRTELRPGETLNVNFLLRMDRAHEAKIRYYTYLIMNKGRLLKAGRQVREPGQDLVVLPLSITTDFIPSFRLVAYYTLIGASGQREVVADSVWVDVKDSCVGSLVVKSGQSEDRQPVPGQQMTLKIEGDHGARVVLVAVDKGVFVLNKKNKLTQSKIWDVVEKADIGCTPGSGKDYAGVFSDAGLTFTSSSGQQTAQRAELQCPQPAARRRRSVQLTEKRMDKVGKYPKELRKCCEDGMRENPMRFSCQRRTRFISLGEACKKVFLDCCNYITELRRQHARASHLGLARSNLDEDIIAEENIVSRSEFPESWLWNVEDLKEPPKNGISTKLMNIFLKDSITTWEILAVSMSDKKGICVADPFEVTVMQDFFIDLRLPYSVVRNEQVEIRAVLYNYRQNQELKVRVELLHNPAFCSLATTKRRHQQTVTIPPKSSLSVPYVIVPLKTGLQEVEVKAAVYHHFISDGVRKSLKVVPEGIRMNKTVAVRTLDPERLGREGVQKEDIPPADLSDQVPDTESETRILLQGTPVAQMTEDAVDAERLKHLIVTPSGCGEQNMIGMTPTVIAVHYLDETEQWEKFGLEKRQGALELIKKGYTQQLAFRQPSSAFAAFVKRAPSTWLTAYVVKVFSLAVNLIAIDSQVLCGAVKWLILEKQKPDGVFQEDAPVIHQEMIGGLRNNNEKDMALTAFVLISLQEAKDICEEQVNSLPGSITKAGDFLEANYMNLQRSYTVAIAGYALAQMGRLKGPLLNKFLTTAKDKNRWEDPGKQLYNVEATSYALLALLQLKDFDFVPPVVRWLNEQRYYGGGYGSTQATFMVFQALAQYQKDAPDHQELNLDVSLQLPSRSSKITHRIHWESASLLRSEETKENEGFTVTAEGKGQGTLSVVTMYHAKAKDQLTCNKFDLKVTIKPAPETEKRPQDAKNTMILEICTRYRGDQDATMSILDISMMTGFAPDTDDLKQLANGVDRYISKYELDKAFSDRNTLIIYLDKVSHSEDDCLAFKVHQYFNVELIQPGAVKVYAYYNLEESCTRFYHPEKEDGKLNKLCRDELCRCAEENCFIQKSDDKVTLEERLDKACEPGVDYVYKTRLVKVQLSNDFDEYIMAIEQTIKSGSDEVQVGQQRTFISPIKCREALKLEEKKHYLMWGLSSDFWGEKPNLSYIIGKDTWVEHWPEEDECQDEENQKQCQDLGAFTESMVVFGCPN
Description: Plasma protein binding. Cp30 (SEQ ID NO:7) was spiked in 500 μL of fresh human plasma containing lepirudin (3.75 units/nil) so that the final peptide concentration was 20 μM (C3: 1.2 mg/mL, 6.4 μm). A control sample was prepared in the same way using Cp30 (SEQ ID NO:7) and milli-Q water to determine the area of peptide in UPLC-MS at 1 μM. The plasma sample was equilibrated at room temperature for 10 min. Then, 500 μL of 30% PEG in milli-Q water (MW3350) was slowly added to the plasma sample while mixing. The mixture was centrifuged at 14000 rpm for 10 min to separate the supernatant. The pellet was dissolved in 1000 μL of FPLC buffer A and separated by FPLC using Mono Q 5/5 column and fractions was collected at 1 mL per tube. 0.5 mL of each fraction was mixed with same volume off 4% H3PO4 for SPE and UPLC-MS analysis.
UPLC-MS analysis. […] Each sample was injected in quadruplicates. […] The analytical column temperature was held at 40° C.

[8] = 5 min, pH 7.4
Description: as §7, §8

[9] = system: complement activation via the alternative pathway; experiment: Erythrocyte hemolytic assay on plasma samples of treated baboon; assay type: in vivo; conditions: intramuscular injection 2 mg/kg
Description: (§1) Hemolytic assay. Rabbit erythrocytes were washed with phosphate-buffered saline (PBS) followed by washing with Veronal-buffered saline (VBS)^Mg+/EGTA. A 1:20 dilution was prepared in VBS buffer. Plasma samples (1:10 in VBS−100 μl) was incubated with the rabbit erythrocytes solution (50 μl) in a 96-well plate at 37° C. for 1 h. EDTA (0.2 mM-15μl) was added to stop the reaction and plate was centrifuged (2500×g 3 min). Supernatant (100μl) was transferred to a new well and optical density was measured at 405 nm. Incubation of erythrocytes with water or buffer was used as positive (100% lysis) and negative (0% lysis) control, respectively.
(§2) Extraction of compstatin analog from plasma samples and LC-MS/MS analysis were performed as described in Example 7. A hemolytic assay was performed as described in Example 5.

[10] = in vivo; design: species or system cynomolgus monkeys (Macaca fascicularis); conditions: cynomolgus monkey
Description: Primate studies and sample collection. […] Two healthy animals were used for each route of administration. The animals were sedated and injected subcutaneously with 2 mg/kg of the compound or orally by intragastric gavage with 4 mg/kg of the compound.
(§3) Analyses. Analysis of plasma samples, determination of plasma half-life and complement inhibitory activity in plasma were performed as described in Example 5.

[11] = in vivo; design: species or system baboon; conditions: 2 mg/kg
Description: A juvenile baboon was injected intramuscularly with 2 mg/kg Cp40 (SEQ ID NO:18) Blood samples for the LC-MS/MS assay were collected in 1-ml plastic tubes containing 50 μg lepirudin, and centrifuged at 2000 g for 20 min at 4° C. for plasma separation. Plasma samples were stored at −70° C. Blood samples were collected at pre-determined time intervals after injection of the analog. Samples were treated with SPE and analyzed using LC-MS/MS. Calibration curves were created using standard peptides at various concentrations in plasma to determine peptide concentration in each sample.
as §2

[12] = in vivo; conditions: cynomolgus monkey, iv, 2 mg/kg
Description: as §4, §5, §6

[13] = in vitro; conditions: human, plasma
Description: as §9, §10

[14] = system: complement activation via the alternative pathway; experiment: Erythrocyte hemolytic assay on plasma samples of treated cynomolgus monkeys; assay type: in vivo, cynomolgus monkeys (Macaca fascicularis); conditions: subcutaneous injection 2 mg/kg
Description: as §1, §3

[15] = physchem
Description: as §7, §8

Work on `CC[C@H](C)[C@H](NC(=O)CNC)C(=O)N[C@H]1CSSC[C@@H](C(=O)N(C)[C@H](C(N)=O)[C@@H](C)CC)NC(=O)[C@H](CCCNC(=N)N)NC(=O)[C@H](Cc2c[nH]cn2)NC(=O)[C@H](C)NC(=O)CN(C)C(=O)[C@H](Cc2c[nH]c3ccccc23)NC(=O)[C@H](CC(=O)O)NC(=O)[C@H](CCC(N)=O)NC(=O)[C@H](Cc2cn(C)c3ccccc23)NC(=O)[C@H](C(C)C)NC1=O` [peptide 3, Sar-Ile-[Cys-Val-Trp(Me)-Gln-Asp-Trp-Sar-Ala-His-Arg-Cys]-mIle-NH2] yielded an IC50 [1] of 0.082 ± 0.014 µM, a Plasma half-life [2] of 10.1 h and a half-life [3] of 5 h. The solubility at 5 min ([4]; Dulbecco's phosphate buffered saline, pH 7.4) was 6.9 mg/mL (≈ 4.07 mM), the “Hydrophobicity Retention Time” value [4] was 4.60 min and the solubility ([4]; water for injection) was > 50 mg/mL. The remaining at 120 h, 20 μM [5] was > 55%, the “ka: association rate” value ([6]; Table 1, N-terminal analogs) was 1.9 ± 0.5 10^6/Ms and the Kd ([6]; Table 1, N-terminal analogs, read-out: KD: binding constant from SPR) was 0.0016 µM. The koff ([6]; Table 1, N-terminal analogs, read-out: kd: dissociation rate) was 0.0029 ± 0.0003 s⁻¹, the “Fraction of peptide co-eluted with C3” value [7] was 88.0% and the “Fraction of peptide co-eluted with C3c” value [7] was 4.5%. For the same compound, the “Fraction of peptide located in the flow-through” value [7] was 7.5%.
With `CC[C@H](C)[C@H](NC(=O)[C@H](N)Cc1ccc(O)cc1)C(=O)N[C@H]1CSSC[C@@H](C(=O)N(C)[C@H](C(N)=O)[C@@H](C)CC)NC(=O)[C@H](CCCNC(=N)N)NC(=O)[C@H](Cc2c[nH]cn2)NC(=O)[C@H](C)NC(=O)CN(C)C(=O)[C@H](Cc2c[nH]c3ccccc23)NC(=O)[C@H](CC(=O)O)NC(=O)[C@H](CCC(N)=O)NC(=O)[C@H](Cc2cn(C)c3ccccc23)NC(=O)[C@H](C(C)C)NC1=O` [peptide 14, dTyr-Ile-[Cys-Val-Trp(Me)-Gln-Asp-Trp-Sar-Ala-His-Arg-Cys]-mIle-NH2] the IC50 [1] was 0.066 ± 0.008 µM, the “Solubility DPBS pH7.4” value [8] was 0.8 mg/mL and the “Complement inhibitory activity versus analog concentration in plasma samples” value [9] was “closely track the concentration of analog”. For the same compound, the “Hydrophobicity Retention Time” value [4] was 4.73 min, the “Time to reach the stated plasma concentration” value ([10]; po, 4 mg/kg) was “within one hour” and the level at time molar ([10]; po, 4 mg/kg) was ~0.023 µM. For the same compound, the Cmax ([10]; sc, 2 mg/kg) was ~12.5 µM, the “Time to peak plasma concentration” value ([10]; sc, 2 mg/kg) was 4 to 5 h and the “Time to peak plasma concentration” value [11] was 5 to 6 h. The Cmax ([11]; monkey, im) was ~10 µM, the Cmax [12] was ~28 µM and the remaining at 120 h, 20 μM [13] was > 55%. The “Complement inhibitory activity versus analog concentration in plasma samples” value [14] was “closely track the concentration of analog”, the “ka: association rate” value ([6]; Table 1, N-terminal analogs) was 2.8 ± 0.5 10^6/Ms and the “ka: association rate” value ([6]; Table 2, Cp40-based analogs) was 2.8 ± 0.6 10^6/Ms. The solubility [15] was > 50 mg/mL and the solubility at 5 min ([15]; pH 7.4) was 0.8 mg/mL (≈ 0.447 mM).
